In this experiment the target is human APJ receptor (Homo sapiens (Human), UniProt P35414). As to the kind of experiment: [35S]GTPγS binding assay on membranes from CHO cells stably expressing human APJ receptor. The experiment is classed as biochemical. To be noted: read-out: Activity hAPJ SPA EC50 IP. As for the experimental part: [^35S]GTPγS Binding The human APJ receptor was cloned by polymerase chain reaction and the gene encoding the receptor was subcloned in pFLAG-CMV™-3 expression vector (Sigma, Saint Louis, Mo. USA) in-house at Amgen. A GTPγS binding assay was performed on membranes prepared from CHO cells stably expressing human APJ receptor. The optimum experimental conditions for the concentrations of GDP, MgCl2, and NaCl in the assay buffer were initially determined. […] Incubation was at RT for 90 min and the microplate was read using a ViewLux™ ultra HTS Microplate Imager (PerkinElmer, Inc.). All the results presented are means of several independent experiments and analyzed by non-linear regression methods using the commercially available program Prism (GraphPad, San Diego, Calif.) providing the EC50 values detailed in Table 13.
Chain of human APJ receptor (P35414 whole entry): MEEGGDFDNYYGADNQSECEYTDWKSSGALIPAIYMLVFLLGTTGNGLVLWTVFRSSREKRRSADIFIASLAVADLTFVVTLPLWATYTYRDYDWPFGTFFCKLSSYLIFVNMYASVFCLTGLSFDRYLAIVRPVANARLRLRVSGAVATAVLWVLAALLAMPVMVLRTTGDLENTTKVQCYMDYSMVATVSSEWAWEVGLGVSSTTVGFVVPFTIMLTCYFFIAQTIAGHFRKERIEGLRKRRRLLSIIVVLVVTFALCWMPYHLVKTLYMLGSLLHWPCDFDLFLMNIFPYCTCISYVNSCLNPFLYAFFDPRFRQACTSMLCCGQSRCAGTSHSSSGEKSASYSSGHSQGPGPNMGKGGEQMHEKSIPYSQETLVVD
(In general: GTPγS resists hydrolysis and so accumulates on activated G proteins.)
With `COC[C@@H]1COc2ccc(OC)nc2-c2nnc(NS(=O)(=O)[C@@H](C)[C@H](C)c3ncc(OC)cn3)n21` (single isomer, unassigned) [Example 7.0, (2S,3R)-N-((5R)-10-methoxy-5-(methoxymethyl)-5,6-dihydropyrido[2,3-f][1,2,4]triazolo[4,3-d][1,4]oxazepin-3-yl)-3-(5-methoxy-2-pyrimidinyl)-2-butanesulfonamide or (2S,3R)-N-((5S)-10-methoxy-5-(methoxymethyl)-5,6-dihydropyrido[2,3-f][1,2,4]traizolo[4,3-d][1,4]oxazepin-3-yl)-3-(5-methoxy-2-pyrimidinyl)-2-butanesulfonamide], the EC50 (as a rule, the concentration at which the effect is half-maximal) turned out to be 250 nM.

Turning to `COC[C@@H]1COc2c(OC)cccc2-c2nnc(NS(=O)(=O)[C@@H](C)[C@H](C)c3ncc(OC)cn3)n21` (single isomer, unassigned) [Example 8.0, (2S,3R)-N-((5R)-8-methoxy-5-(methoxymethyl)-5,6-dihydro[1,2,4]triazolo[4,3-d][1,4]benzoxazepin-3-yl)-3-(5-methoxy-2-pyrimidinyl)-2-butanesulfonamide or (2S,3R)-N-((5S)-8-methoxy-5-(methoxymethyl)-5,6-dihydro[1,2,4]triazolo[4,3-d][1,4]benzoxazepin-3-yl)-3-(5-methoxy-2-pyrimidinyl)-2-butanesulfonamide], the EC50 was 270 nM. The figure for `COC[C@@H]1COc2c(OC)cccc2-c2nnc(NS(=O)(=O)[C@@H](C)[C@H](C)c3ncc(OC)cn3)n21` (single isomer, unassigned) [Example 9.0, (2S,3R)-N-((5R)-8-methoxy-5-(methoxymethyl)-5,6-dihydro[1,2,4]triazolo[4,3-d][1,4]benzoxazepin-3-yl)-3-(5-methoxy-2-pyrimidinyl)-2-butanesulfonamide or (2S,3R)-N-((5S)-8-methoxy-5-(methoxymethyl)-5,6-dihydro[1,2,4]triazolo[4,3-d][1,4]benzoxazepin-3-yl)-3-(5-methoxy-2-pyrimidinyl)-2-butanesulfonamide] is 1600 nM. Then `COC[C@@H]1COc2ccc(OC)nc2-c2nnc(NS(=O)(=O)[C@@H](C)[C@H](C)c3ncc(C)cn3)n21` (single isomer, unassigned) [Example 12.0, (2S,3R)-N-((5R)-10-methoxy-5-(methoxymethyl)-5,6-dihydropyrido[2,3-f][1,2,4]triazolo[4,3-d][1,4]oxazepin-3-yl)-3-(5-methyl-2-pyrimidinyl)-2-butanesulfonamide or (2S,3R)-N-((5S)-10-methoxy-5-(methoxymethyl)-5,6-dihydropyrido[2,3-f][1,2,4]triazolo[4,3-d][1,4]oxazepin-3-yl)-3-(5-methyl-2-pyrimidinyl)-2-butanesulfonamide], with 1200 nM. Then `COC[C@@H]1COc2ccc(OC)nc2-c2nnc(NS(=O)(=O)[C@@H](C)[C@H](C)c3ncc(C)cn3)n21` (single isomer, unassigned) [Example 13.0, (2S,3R)-N-((5R)-10-methoxy-5-(methoxymethyl)-5,6-dihydropyrido[2,3-f][1,2,4]triazolo[4,3-d][1,4]oxazepin-3-yl)-3-(5-methyl-2-pyrimidinyl)-2-butanesulfonamide or (2S,3R)-N-((5S)-10-methoxy-5-(methoxymethyl)-5,6-dihydropyrido[2,3-f][1,2,4]traizolo[4,3-d][1,4]oxazepin-3-yl)-3-(5-methyl-2-pyrimidinyl)-2-butanesulfonamide], with 370 nM. In the case of `COC[C@@H]1COc2ccc(OC)nc2-c2nnc(NS(=O)(=O)[C@@H](C)[C@@H](OC(C)C)c3ncc(C)cn3)n21` (single isomer, unassigned) [Example 14.0, (1S,2S)-N-((5R)-10-methoxy-5-(methoxymethyl)-5,6-dihydropyrido[2,3-1][1,2,4]triazolo[4,3-d][1,4]oxazepin-3-yl)-1-(5-methyl-2-pyrimidinyl)-1-(2-propanyloxy)-2-propanesulfonamide or (1S,2S)-N-((5S)-10-methoxy-5-(methoxymethyl)-5,6-dihydropyrido[2,3-1][1,2,4]triazolo[4,3-d][1,4]oxazepin-3-yl)-1-(5-methyl-2-pyrimidinyl)-1-(2-propanyloxy)-2-propanesulfonamide], the EC50 was 400 nM. The figure for `COC[C@@H]1COc2ccc(OC)nc2-c2nnc(NS(=O)(=O)[C@@H](C)[C@@H](OC(C)C)c3ncc(C)cn3)n21` (single isomer, unassigned) [Example 15.0, (1S,2S)-N-((5R)-10-methoxy-5-(methoxymethyl)-5,6-dihydropyrido[2,3-f][1,2,4]triazolo[4,3-d][1,4]oxazepin-3-yl)-1-(5-methyl-2-pyrimidinyl)-1-(2-propanyloxy)-2-propanesulfonamide or (1S,2S)-N-((5S)-10-methoxy-5-(methoxymethyl)-5,6-dihydropyrido[2,3-f][1,2,4]triazolo[4,3-d][1,4]oxazepin-3-yl)-1-(5-methyl-2-pyrimidinyl)-1-(2-propanyloxy)-2-propanesulfonamide] is 37 nM; for `COc1ccc2c(n1)-c1nnc(NS(=O)(=O)[C@@H](C)[C@@H](OC(C)C)c3ncc(C)cn3)n1[C@H](CO)CO2` (single isomer, unassigned) [Example 18.0, (1S,2S)-N-((R)-5-(hydroxymethyl)-10-methoxy-5,6-dihydropyrido[2,3-f][1,2,4]triazolo[4,3-d][1,4]oxazepin-3-yl)-1-isopropoxy-1-(5-methylpyrimidin-2-yl)propane-2-sulfonamide or (1S,2S)-N-((S)-5-(hydroxymethyl)-10-methoxy-5,6-dihydropyrido[2,3-f][1,2,4]traizolo[4,3-d][1,4]oxazepin-3-yl)-1-isopropoxy-1-(5-methylpyrimidin-2-yl)propane-2-sulfonamide] it is 640 nM. The figure for `COc1ccc2c(n1)-c1nnc(NS(=O)(=O)[C@@H](C)[C@@H](OC(C)C)c3ncc(C)cn3)n1[C@H](CO)CO2` (single isomer, unassigned) [Example 19.0, (1S,2S)-N-((R)-5-(hydroxymethyl)-10-methoxy-5,6-dihydropyrido[2,3-f][1,2,4]triazolo[4,3-d][1,4]oxazepin-3-yl)-1-isopropoxy-1-(5-methylpyrimidin-2-yl)propane-2-sulfonamide or (1S,2S)-N-((S)-5-(hydroxymethyl)-10-methoxy-5,6-dihydropyrido[2,3-f][1,2,4]triazolo[4,3-d][1,4]oxazepin-3-yl)-1-isopropoxy-1-(5-methylpyrimidin-2-yl)propane-2-sulfonamide] is 990 nM; for `COC[C@@H]1COc2cc(F)c(F)cc2-c2nnc(NS(=O)(=O)[C@@H](C)[C@@H](OC(C)C)c3ncc(C)cn3)n21` (single isomer, unassigned) [Example 20.0, (1S,2S)-N-((5R)-9,10-difluoro-5-(methoxymethyl)-5,6-dihydro[1,2,4]triazolo[4,3-d][1,4]benzoxazepin-3-yl)-1-(5-methyl-2-pyrimidinyl)-1-(2-propanyloxy)-2-propanesulfonamide or (1S,2S)-N-((5S)-9,10-difluoro-5-(methoxymethyl)-5,6-dihydro[1,2,4]triazolo[4,3-d][1,4]benzoxazepin-3-yl)-1-(5-methyl-2-pyrimidinyl)-1-(2-propanyloxy)-2-propanesulfonamide] it is 990 nM; for `COC[C@@H]1COc2cc(F)c(F)cc2-c2nnc(NS(=O)(=O)[C@@H](C)[C@@H](OC(C)C)c3ncc(C)cn3)n21` (single isomer, unassigned) [Example 21.0, (1S,2S)-N-((5R)-9,10-difluoro-5-(methoxymethyl)-5,6-dihydro[1,2,4]triazolo[4,3-d][1,4]benzoxazepin-3-yl)-1-(5-methyl-2-pyrimidinyl)-1-(2-propanyloxy)-2-propanesulfonamide or (1S,2S)-N-((5S)-9,10-difluoro-5-(methoxymethyl)-5,6-dihydro[1,2,4]triazolo[4,3-d][1,4]benzoxazepin-3-yl)-1-(5-methyl-2-pyrimidinyl)-1-(2-propanyloxy)-2-propanesulfonamide] it is 3400 nM. Consider `COC[C@@H]1COc2ccc(F)cc2-c2nnc(NS(=O)(=O)[C@@H](C)[C@@H](OC(C)C)c3ncc(C)cn3)n21` (single isomer, unassigned) [Example 25.0, (1S,2S)-N-((5R)-10-fluoro-5-(methoxymethyl)-5,6-dihydro[1,2,4]traizolo[4,3-d][1,4]benzoxazepin-3-yl)-1-(5-methyl-2-pyrimidinyl)-1-(2-propanyloxy)-2-propanesulfonamide or (1S,2S)-N-((5S)-10-fluoro-5-(methoxymethyl)-5,6-dihydro[1,2,4]traizolo[4,3-d][1,4]benzoxazepin-3-yl)-1-(5-methyl-2-pyrimidinyl)-1-(2-propanyloxy)-2-propanesulfonamide], for which the EC50 is 28 nM. In the case of `COC[C@@H]1COc2ccc(F)cc2-c2nnc(NS(=O)(=O)[C@@H](C)[C@@H](OC(C)C)c3ncc(C)cn3)n21` (single isomer, unassigned) [Example 26.0, (1S,2S)-N-((5R)-10-fluoro-5-(methoxymethyl)-5,6-dihydro[1,2,4]triazolo[4,3-d][1,4]benzoxazepin-3-yl)-1-(5-methyl-2-pyrimidinyl)-1-(2-propanyloxy)-2-propanesulfonamide or (1S,2S)-N-((5S)-10-fluoro-5-(methoxymethyl)-5,6-dihydro[1,2,4]triazolo[4,3-d][1,4]benzoxazepin-3-yl)-1-(5-methyl-2-pyrimidinyl)-1-(2-propanyloxy)-2-propanesulfonamide], the EC50 worked out at 460 nM.

The record behind these values is US11149040B2, “Fused triazole agonists of the APJ receptor” (AMGEN INC., priority 2017, dated 2021).
